Reference: patent publication US5580869A, “1N substituted pyrazino[2,3-c]-1,2,6-thiadiazine 2,2-dioxides” (Prodesfarma, S.A., priority 1992, dated 1996)
Like-named read-outs stand apart in the source and are kept apart here.

What was measured:
[1] = system: platelet rich rabbit plasma; test: In vitro platelet antiaggregation activity, arachidonic acid induced, platelet rich plasma; format: cell-based; conditions: Oryctolagus cuniculus; for activity at 10 µg/mL: 10 mcg/ml, arachidonic acid 50 mcg/ml
Procedure: (§1) The platelet antiaggregation activity was determined in vitro using platelet rich rabbit plasma and arachidonic acid (50 mcg/ml) as aggregation inducing agent. The results are given for tracheal relaxation as percentage inhibition of the tracheal tone relative to the maximum relaxation induced by noradrenaline (0.3 mcg/ml) and for the platelet aggregation as a percentage of the maximum effect observed with the proaggregation agent.

[2] = system: isolated guinea pig trachea; test: In vitro trachea relaxing activity (spontaneous tone in isolated trachea, method of Luduena); format: cell-based; conditions: Cavia porcellus, 30 mcg/ml, relative to maximum relaxation by noradrenaline 0.3 mcg/ml
Procedure: as §1

[3] = system: histamine induced bronchospasm in anaesthetized guinea pig; test: In vivo bronchodilatory effect, histamine induced bronchospasm (Konzett and Rossler); conditions: area under the curve relative to theophylline
Procedure: Konzett and Rosslet's technique was used for evaluation, with the capacity of the tested products, when administered intraduodenally at dose levels of 25 and 100 mg/kg, to antagonize a histamine induced bronchospasm (7.5 mcg/ml) in anaesthetized guinea pig being determined. Theophylline (25 mg/kg, i.d.) was used as reference drug, with the areas under the curve defined by the bronchospasm inhibition percentages and the post-administration time being compared.

rats = test: Diuretic and saluretic activity (urine volume and electrolyte excretion over 6 h), technique of Lipschits et al.; format: in vivo; conditions: rat, 20 mg/kg po, (N) = not statistically significant vs control
Procedure: The synthesized compounds were, therefore, subjected a pharmacological screening to evaluate a possible diuretic and salt excreting activity. Thus, an acute dose of each of the products of synthesis (20 or 25 mg/kg) was administered to rats and the amount of urine and the excretion of electrolytes was measured, following the technique described by Lipschits et al., with certain modifications (J. Pharmacol. Exp.Ther. 1943-79; 97-110).
The volume (ml/kg/6 h), the pH and the excretion of sodium, potassium and chloride ions (mEq/kg/6 h) were determined on the urine quantitatively collected over 6 hours, using triamterene and hydrochlorothiazide as reference diuretics.

human platelets = test: In vitro inhibition of human platelet aggregation, Born's method; format: cell-based
Procedure: The platelet antiaggregation activity of the active products in the initial screening (Table 4) has been confirmed and extended by evaluating the capacity thereof to inhibit in vitro the aggregation of human platelets using Born's method. ADP (1 mcM), collagen (2 mcg/ml), arachidonic acid (1 mM), U-46619 (1,4 mcM) and IBOP (225 nM) were used as aggregation inducing agents. The results obtained (Table 5) show the capacity of the products tested to inhibit dose dependently the platelet aggregation induced by collagen, arachidonic acid, U-46619 and IBOP, probably through interaction with the platelet endoperoxide/thromboxane receptor. Therefore, said compounds might be potentially useful in the treatment of disorders in which the thromboxanes play a part, such as myocardial infarct, cerebrovascular diseases and asthmatic and/or inflammatory states.

[4] = IBOP 225 nM, read-out: Concentration inhibiting > 60% platelet aggregation, IBOP
[5] = U-46619 1,4 mcM, read-out: Concentration inhibiting > 60% platelet aggregation, U-46619
[6] = arachidonic acid 1 mM, read-out: Concentration inhibiting > 60% platelet aggregation, arachidonic acid
[7] = collagen 2 mcg/ml, read-out: Concentration inhibiting > 60% platelet aggregation, collagen

Structure (SMILES) | activity at 30 µg/mL [2] [%] | activity at 10 µg/mL [1] [%] | IC60 (human platelets; [4]) [nM] | IC60 (human platelets; [5]) [nM] | IC60 (human platelets; [6]) [nM] | IC60 (human platelets; [7]) [nM] | further results
CC(=O)Oc1ccccc1C(=O)O [Aspirin, reference compound] |  |  |  |  |  |  | activity at 2.5 µg/mL ([1]; read-out: platelet antiaggregation activity (%)): 100%
CCN1c2nc3c(nc2C(N)=NS1(=O)=O)CCCC3 [4-amino-1-ethyl-6,7,8,9-tetrahydro-1,2,6-thiadiazine[3,4-b]quinoxaline 2,2-dioxide] | 82 |  |  |  |  |  | Bronchodilatory activity (area ratio) ([3]; 25 mg/kg i.d.): 0.6; Bronchodilatory activity (area ratio) ([3]; 100 mg/kg i.d.): 0.4
CCN1c2nc(C)c(-c3ccccc3)nc2C(N)=NS1(=O)=O [1-ethyl-6-phenyl-7-methyl, 4-amino-1-ethyl-6-phenyl-7-methylpyrazino[2,3-c]-1,2,6-thiadiazine 2,2-dioxide] | 93 | 100 | 3000 | 3000 | 30000 | 1000 | response vs control in vivo at 20 mg/kg (rats; read-out: Cl excretion, treated group/control group ratio): 123%; response vs control in vivo at 20 mg/kg (rats; read-out: K excretion, treated group/control group ratio): 85%; response vs control in vivo at 20 mg/kg (rats; read-out: Na excretion, treated group/control group ratio): 142%; response vs control in vivo at 20 mg/kg (rats; read-out: Na/K): 165%; response vs control in vivo at 20 mg/kg (rats; read-out: Volume urine, treated group/control group ratio): 121%
CCN1c2nc(-c3ccccc3)c(-c3ccccc3)nc2C(N)=NS1(=O)=O [1-ethyl-6,7-diphenyl, 4-amino-1-ethyl-6,7-diphenylpyrazino[2,3-c]-1,2,6-thiadiazine 2,2-dioxide] |  | 100 | 3000 | 1000 | 30000 | 1000 | 
CCN1c2ncc(C)nc2C(N)=NS1(=O)=O [1-ethyl-6-methyl, 4-amino-1-ethyl-6-methylpyrazino[2,3-c]-1,2,6-thiadiazine 2,2-dioxide] | 67 |  |  |  |  |  | Bronchodilatory activity (area ratio) ([3]; 25 mg/kg i.d.): 0.8; Bronchodilatory activity (area ratio) ([3]; 100 mg/kg i.d.): 1.3
CCN1c2ncc(-c3ccccc3)nc2C(N)=NS1(=O)=O [1-ethyl-6-phenyl, 4-amino-1-ethyl-6-phenyl-pyrazino[2,3-c]-1,2,6-thiadiazine 2,2-dioxide] |  | 100 | 1000 | 10000 | 30000 | 1000 | 
CCN1c2nc(-c3ccccc3)c(Br)nc2C(N)=NS1(=O)=O [6-bromo-1-ethyl-7-phenyl, 4-amino-6-bromo-1-ethyl-7-phenylpyrazino[2,3-c]-1,2,6-thiadiazine 2,2-dioxide] | 63 | 100 |  |  |  |  | 
